Reference: patent US9670166B2, “Substituted bicyclic dihydropyrimidinones and their use as inhibitors of neutrophil elastase activity” (Boehringer Ingelheim International GmbH, priority 2013, dated 2017)
Values joined by “and” are separate entries in the source; they are usually repeats but may differ in a detail not shown here. Equal entries are not always repeated.

Assays:
[1] = Metabolic stability with human hepatocytes; assay type: in vitro ADME; details: human hepatocyte suspension, 1 μM, scaled by well stirred model
Description: The cells are incubated for six hours (incubator, orbital shaker) and samples (25 μl) are taken at 0, 0.5, 1, 2, 4 and 6 hours. Samples are transferred into acetonitrile and pelleted by centrifugation (5 min) The supernatant is transferred to a new 96-deepwell plate, evaporated under nitrogen and resuspended. The decline of parent compound is analyzed by LC-MS/MS.
The intrinsic clearance CL_[sequence] is calculated as follows: CL_[sequence]=Dose/AUC=(C0/CD)/(AUD+clast/k)*1,000/60
(C0: initial concentration in the incubation [μM], CD: cell density of vital cells [10^6 cells/mL], AUD: area under the data [μM*h], clast: concentration of last data point [μM], k: slope of the regression line for parent decline [h^−1])
The calculated in vitro hepatic intrinsic clearance can be scaled up to the intrinsic in vivo hepatic clearance and used to predict hepatic in vivo blood clearance (CL) by the use of a liver model (well stirred model): CL_[sequence]_INVIVO [ml/min/kg]=(CL_[sequence] [μL/min/10^6 cells]*hepatocellularity [10^6 cells/g liver]*liver factor [g/kg bodyweight])/1,000 CL [ml/min/kg]=CL_[sequence]_INVIVO [ml/min/kg]*hepatic blood flow [ml/min/kg]/(CL_[sequence]_INVIVO [ml/min/kg]+hepatic blood flow [ml/min/kg]) Qh [%]=CL [ml/min/kg]/hepatic blood flow [ml/min/kg])

[2] = Metabolic stability with human liver microsomes; details: pooled human liver microsomes 1 mg/ml, test compound 1 μM, 37° C., NADPH
[3] = system: Caco-2 cells; test: Drug transport across human Caco-2 cells; assay type: in vitro ADME; details: for Efflux ratio: PEBA/PEAB; for PEAB: apical-to-basal; for PEAB / PEBA: Caco-2 monolayers, pH 7.2, 37° C.; for PEBA: basal-to-apical
Description: Assay for Determination of Drug Transport Across Human Caco-2 Cells
The assay provides information on the potential of a compound to pass the cell membrane, on the extent of oral absorption as well as on whether the compound is actively transported by uptake and/or efflux transporters.
The compounds are assigned to permeability/absorption classes by comparison of the AB permeabilities with the AB permeabilities of reference compounds with known in vitro permeability and oral absorption in the human. Identical or similar permeabilities in both transport directions indicate passive permeation, vectorial permeability points to additional active transport mechanisms. […] Active transport is concentration-dependently saturable.
Caco-2 cells (1-2*10^5 cells/cm^2 area) are seeded on filter inserts (Costar transwell polycarbonate or PET filters, 0.4 μm pore size) and cultured (DMEM) for 10 to 25 days. Compounds are dissolved in appropriate solvent (like DMSO, 1-20 mM stock solutions). […] The transport solution (TL) is applied to the apical or basolateral donor side for measuring A-B or B-A permeability (3 filter replicates), respectively. The receiver side contains HTP-4 buffer supplemented with 2% BSA. […] Sampled receiver volumes are replaced with fresh receiver solution.

[4] = Aqueous solubility; assay type: physicochemical; details: McIlvaine buffer pH 6.8, 2.5% DMSO, 24 h shaking
Description: Assay for Determination of Aqueous Solubility […] After 24 h of shaking, the solutions or suspensions are filtered and analyzed by LC-UV. The amount dissolved in buffer is compared to the amount dissolved in the acetonitrile/water (1/1) solution.

Compound	CL (predicted human hepatic in vivo blood clearance) [1]	t1/2 INVITRO [2]	Aqueous solubility [4]	further results
CNC(=O)N1C(=O)N(c2cccc(C(F)(F)F)c2)C2=C(C(=O)CC2)[C@H]1c1ccc(C#N)cc1 [Example 7.1A, (R)-4-(4-Cyanophenyl)-N-methyl-2,5-dioxo-1-(3-(trifluoromethyl)phenyl)-4,5,6,7-tetrahydro-1H-cyclopenta[d]pyrimidine-3(2H)-carboxamide]	3 mL/min/kg	–	–	–
N#Cc1ccc([C@@H]2C3=C(CCC3=O)N(c3cccc(C(F)(F)F)c3)C(=O)N2C(=O)NCCO)cc1 [Example 7.2A, (R)-4-(4-Cyanophenyl)-N-(2-hydroxyethyl)-2,5-dioxo-1-(3-(trifluoromethyl)phenyl)-4,5,6,7-tetrahydro-1H-cyclopenta[d]pyrimidine-3(2H)-carboxamide]	0 mL/min/kg	–	–	–
C[S+]([O-])CCNC(=O)N1C(=O)N(c2cccc(C(F)(F)F)c2)C2=C(C(=O)CC2)C1c1ccc(C#N)cc1 (centres unmarked) [Example 7.6]	–	>2.17 h	–	–
CS(=O)(=O)c1cc(C#N)ccc1[C@H]1NC(=O)N(c2cccc(C(F)(F)F)c2)C2=C1C(=O)CC2 [example 10A, (S)-4-(2,5-Dioxo-1-(3-(trifluoromethyl)phenyl)-2,3,4,5,6,7-hexahydro-1H-cyclopenta[d]pyrimidin-4-yl)-3-(methylsulfonyl)benzonitrile]	0 mL/min/kg	–	–	AB permeability (comparison in words) ([3]; Caco-2, compared to example 44 disclosed in US 2011/0034433): improved AB permeability
C[C@H](O)CNC(=O)N1C(=O)N(c2cccc(C(F)(F)F)c2)C2=C(C(=O)CC2)C1c1ccc(C#N)cc1 (some centres unmarked) [Example 41.1]	2 mL/min/kg	>2.17 h	–	Efflux ratio [3]: 8.9 and 4.8
N#Cc1ccc([C@@H]2C3=C(CCC3=O)N(c3cccc(C(F)(F)F)c3)C(=O)N2C(=O)N[C@H]2COC[C@@H]2O)cc1 [Example 45.5]	0 mL/min/kg	>2.17 h	56 µg/mL	–
N#Cc1ccc([C@@H]2C3=C(CCC3=O)N(c3cccc(C(F)(F)F)c3)C(=O)N2C(=O)N[C@H]2CCC[C@@H]2O)cc1 [Example 45.4]	–	>2.17 h	28 µg/mL	Efflux ratio [3]: 2.0; PEAB [3]: 38.1 ×10⁻⁶ cm/s; PEBA [3]: 77.2 ×10⁻⁶ cm/s
N#Cc1ccc(C2C3=C(CCC3=O)N(c3cccc(C(F)(F)F)c3)C(=O)N2C(=O)NC2(CO)CC2)cc1 (centres unmarked) [Example 41.5]	–	–	–	Efflux ratio [3]: 8.7; PEBA [3]: 77 ×10⁻⁶ cm/s
CS(=O)(=O)CCNC(=O)N1C(=O)N(c2cccc(C(F)(F)F)c2)C2=C(C(=O)CC2)C1c1ccc(C#N)cc1F (centres unmarked) [Example 49.3]	0 mL/min/kg	>2.17 h	32 µg/mL	–
CS(=O)(=O)c1cc(C#N)ccc1C1C2=C(CCC2=O)N(c2cccc(C(F)(F)F)c2)C(=O)N1CC(=O)N1CC2CC2C1 (centres unmarked) [Example 22.4]	–	>2.17 h	–	–
CC(C)(O)CNC(=O)N1C(=O)N(c2cccc(C(F)(F)F)c2)C2=C(C(=O)CC2)[C@H]1c1ccc(C#N)cc1 [Example 41A, (R)-4-(4-Cyanophenyl)-N-(2-hydroxy-2-methylpropyl)-2,5-dioxo-1-(3-(trifluoro-methyl)phenyl)-4,5,6,7-tetrahydro-1H-cyclopenta[d]pyrimidine-3(2H)-carboxamide]	0 mL/min/kg	–	–	–
CC(C)NC(=O)N1C(=O)N(c2cccc(C(F)(F)F)c2)C2=C(C(=O)CC2)[C@H]1c1ccc(C#N)cc1S(C)(=O)=O [Example 47.5]	–	>2.17 h	16 µg/mL	PEAB [3]: 19.2 ×10⁻⁶ cm/s; PEBA [3]: 86.7 ×10⁻⁶ cm/s
CNC(=O)N1C(=O)N(c2cccc(C(F)F)c2)C2=C(C(=O)CC2)C1c1ccc(C#N)cc1 (centres unmarked) [Example 52.1]	–	>2.17 h	41 µg/mL	Efflux ratio [3]: 1.0; PEAB [3]: 57.1 ×10⁻⁶ cm/s; PEBA [3]: 58.3 ×10⁻⁶ cm/s
CS(=O)(=O)c1cc(C#N)ccc1C1C2=C(CCC2=O)N(c2cccc(C(F)F)c2)C(=O)N1C(=O)NC1CC1 (centres unmarked) [Example 53.3]	–	–	34 µg/mL	–
N#Cc1ccc(C2C3=C(CCC3=O)N(c3cccc(C(F)(F)F)c3)C(=O)N2C(=O)N[C@H]2COC[C@H]2O)cc1 (some centres unmarked) [Example 42.6]	5 mL/min/kg	–	67 µg/mL	–
N#Cc1ccc([C@@H]2C3=C(CCC3=O)N(c3cccc(C(F)F)c3)C(=O)N2C(=O)NCCCO)cc1 [Example 52A, (R)-4-(4-Cyanophenyl)-1-(3-(difluoromethyl)phenyl)-N-(3-hydroxypropyl)-2,5-dioxo-4,5,6,7-tetrahydro-1H-cyclopenta[d]pyrimidine-3(2H)-carboxamide]	8 mL/min/kg	–	–	–
CCNC(=O)N1C(=O)N(c2ccnc(C(F)(F)F)c2)C2=C(C(=O)CC2)C1c1ccc(C#N)cc1 (racemic) [Example 54.2]	–	>2.17 h	–	–

Compound	CL (predicted human hepatic in vivo blood clearance) [1]	t1/2 INVITRO [2]	Aqueous solubility [4]	further results
CS(=O)(=O)c1cc(C#N)ccc1C1NC(=O)N(c2cccc(C(F)F)c2)C2=C1C(=O)CC2 (centres unmarked) [Example 15.4, 4-(1-(3-(difluoromethyl)phenyl)-2,5-dioxo-2,3,4,5,6,7-hexahydro-1H-cyclopenta[d]pyrimidin-4-yl)-3-(methylsulfonyl)benzonitrile]	0 mL/min/kg	–	–	–
CCS(=O)(=O)c1cc(C#N)ccc1C1NC(=O)N(c2cccc(C(F)(F)F)c2)C2=C1C(=O)CC2 (centres unmarked) [Example 14, 4-(2,5-Dioxo-1-(3-(trifluoromethyl)phenyl)-2,3,4,5,6,7-hexahydro-1H-cyclopenta[d]pyrimidin-4-yl)-3-(ethylsulfonyl)benzonitrile]	4 mL/min/kg	–	–	–
CS(=O)(=O)N1C(=O)N(c2cccc(C(F)(F)F)c2)C2=C(C(=O)CC2)[C@H]1c1ccc(C#N)cc1 [Example 9A, (R)-4-(3-(Methylsulfonyl)-2,5-dioxo-1-(3-(trifluoromethyl)phenyl)-2,3,4,5,6,7-hexahydro-1H-cyclopenta[d]pyrimidin-4-yl)benzonitrile]	0 mL/min/kg	–	–	–
C[C@H](CO)NC(=O)N1C(=O)N(c2cccc(C(F)(F)F)c2)C2=C(C(=O)CC2)C1c1ccc(C#N)cc1 (some centres unmarked) [Example 41.4]	5 mL/min/kg	>2.17 h	–	Efflux ratio [3]: 8.7
CS(=O)(=O)c1cc(C#N)ccc1C1C2=C(CCC2=O)N(c2cccc(C(F)(F)F)c2)C(=O)N1CCCO (centres unmarked) [Example 24.1]	–	1.67 h	–	–
CN(C)C(=O)CN1C(=O)N(c2cccc(C(F)(F)F)c2)C2=C(C(=O)CC2)C1c1ccc(C#N)cc1 (centres unmarked) [Example 6.2]	6 mL/min/kg	–	–	–
CS(=O)(=O)c1cc(C#N)ccc1[C@@H]1C2=C(CCC2=O)N(c2cccc(C(F)(F)F)c2)C(=O)N1C(=O)NC1CC1 [Example 47.4]	–	>2.17 h	19 µg/mL	PEAB [3]: 7.74 ×10⁻⁶ cm/s; PEBA [3]: 85.5 ×10⁻⁶ cm/s
N#Cc1ccc(C2C3=C(CCC3=O)N(c3cccc(C(F)(F)F)c3)C(=O)N2CC(=O)N2CCC2)cc1 (centres unmarked) [Example 6.3]	4 mL/min/kg	>2.17 h	–	–
CN1C(=O)N(c2cccc(C(F)(F)F)c2)C2=C(C(=O)CC2)[C@H]1c1ccc(C#N)cc1S(C)(=O)=O [Example 25, (S)-4-(3-Methyl-2,5-dioxo-1-(3-(trifluoromethyl)phenyl)-2,3,4,5,6,7-hexahydro-1H-cyclopenta[d]pyrimidin-4-yl)-3-(methylsulfonyl)benzonitrile]	2 mL/min/kg	–	–	–
N#Cc1ccc(C2C3=C(CCC3=O)N(c3cccc(C(F)F)c3)C(=O)N2C(=O)NCCO)cc1 (centres unmarked) [Example 52.3]	–	>2.17 h	91 µg/mL	–
CC(C)(O)CNC(=O)N1C(=O)N(c2cccc(C(F)F)c2)C2=C(C(=O)CC2)C1c1ccc(C#N)cc1 (centres unmarked) [Example 52.5]	–	>2.17 h	70 µg/mL	Efflux ratio [3]: 14.1; PEAB [3]: 4.45 ×10⁻⁶ cm/s; PEBA [3]: 62.7 ×10⁻⁶ cm/s
CS(=O)(=O)c1cc(C#N)ccc1[C@@H]1C2=C(CCC2=O)N(c2cccc(C(F)(F)F)c2)C(=O)N1CC#N [Example 23, (S)-4-(3-(Cyanomethyl)-2,5-dioxo-1-(3-(trifluoromethyl)phenyl)-2,3,4,5,6,7-hexahydro-1H-cyclopenta[d]pyrimidin-4-yl)-3-(methylsulfonyl)benzonitrile]	0 mL/min/kg	–	–	–
CC(C)(O)CCNC(=O)N1C(=O)N(c2cccc(C(F)(F)F)c2)C2=C(C(=O)CC2)C1c1ccc(C#N)cc1 (centres unmarked) [Example 41.17]	3 mL/min/kg	>2.17 h	–	Efflux ratio [3]: 3.5
N#Cc1ccc(C2C3=C(CCC3=O)N(c3cccc(C(F)(F)F)c3)C(=O)N2C(=O)NCCCO)cc1 (centres unmarked) [Example 7.3]	7 mL/min/kg	>2.17 h	–	Efflux ratio [3]: 7.1
N#Cc1ccc(C2C3=C(CCC3=O)N(c3cccc(C(F)(F)F)c3)C(=O)N2C(=O)N[C@@H]2CCC[C@H]2O)cc1 (some centres unmarked) [Example 42.3]	–	>2.17 h	20 µg/mL	Efflux ratio [3]: 2.4; PEAB [3]: 36.2 ×10⁻⁶ cm/s; PEBA [3]: 86 ×10⁻⁶ cm/s
N#Cc1ccc(C2C3=C(CCC3=O)N(c3cccc(C(F)(F)F)c3)C(=O)N2C(=O)NC2CCOCC2)cc1 (centres unmarked) [Example 41.16]	–	>2.17 h	–	Efflux ratio [3]: 1.0
CNC(=O)N1C(=O)N(c2cccc(C(F)(F)F)c2)C2=C(C(=O)CC2)C1c1ccc(C#N)cn1 (centres unmarked) [Example 50.1]	1 mL/min/kg	–	–	–
